target: T1, GPBAR1 (Homo sapiens, UniProt Q8TDU6); assay: Luciferase reporter (CRE) transactivation assay in HEK-293T cells transfected with GPBAR1; type: cell-based; settings: 10 μM, compared to TLCA
T1 construct: expressed in transfected cells; host or cells: HEK-293T
T1 sequence (Q8TDU6 1-330): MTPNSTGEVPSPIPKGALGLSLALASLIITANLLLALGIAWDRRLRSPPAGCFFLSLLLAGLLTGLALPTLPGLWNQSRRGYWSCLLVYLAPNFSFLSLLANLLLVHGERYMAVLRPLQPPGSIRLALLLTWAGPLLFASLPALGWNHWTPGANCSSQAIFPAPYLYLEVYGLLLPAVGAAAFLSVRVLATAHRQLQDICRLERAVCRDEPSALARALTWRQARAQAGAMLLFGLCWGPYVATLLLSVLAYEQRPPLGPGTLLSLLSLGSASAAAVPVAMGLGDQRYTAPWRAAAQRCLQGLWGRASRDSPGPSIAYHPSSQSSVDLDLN
Method: The activity of compounds 1–14 on GPBAR1 was evaluated in a luciferase reporter assay using HEK-293T cells transfected with GPBAR1. The efficacy of tested compounds (Table 1) was measured using taurolithocholic acid (TLCA) as GPBAR1 reference compound[10],[11]. Each compound was tested at the concentration of 10 μM and transactivation activity of TLCA on a cAMP responsive element (CRE) (i.e. TGR5/GPBAR1) was considered equal to 100%. […] Thus, 9 and 10 (Table 1) turned out to be the most promising derivatives considering their low EC50 values and high activity efficacy. To further characterize the pharmacological properties of these compounds, we expanded their in vitro profile to common off-targets for bile acid receptor ligands.
Transactivation assay on HEK-293T cells was performed to investigate GPBAR1 activation, using compound 1–14 and TLCA as positive control at 10 µM, as previously reported.
Supplementary Figure S4. HEK-293T cells were transiently transfected with GPBAR1 and a reporter gene containing a cAMP responsive element in front of the luciferase gene. Cells were stimulated with compounds A-L (10 μM). TLCA (10 μM) was used as positive control. Luciferase activity served as a measure of the rise in intracellular cAMP following activation of GPBAR1. In all panels, results are expressed as mean ± standard error. ^∗p < 0.05 versus not treated cells (NT).

| GPBAR1 agonist activity in transactivation assay | SMILES |
| --- | --- |
| moderate GPBAR1 agonist activity | O=C(Nc1ccc(C(F)(F)F)cc1)N[C@@H]1CN[C@H](c2nc(-c3ccccc3)no2)C1 [Compound 4] |

same assay, conditions: HEK-293T, maximal transactivation of CRE, compound 10 μM vs TLCA 10 μM = 100%; HEK-293T; read-out: Efficacy (% vs TLCA)

| SMILES | Emax at 10 µM |
| --- | --- |
| N[C@@H]1CN[C@H](c2nc(-c3ccccc3)no2)C1 [Compound 3] | 58 to 121% |
| O[C@H]1CN[C@H](c2nc(-c3ccccc3)no2)C1 [Compound 1] | 58 to 121% |
| [N-]=[N+]=N[C@@H]1CN[C@H](c2nc(-c3ccccc3)no2)C1 [Compound 2] | 58 to 121% |
| O=C(NCc1ccccc1)N[C@@H]1CN[C@H](c2nc(-c3ccccc3)no2)C1 [Compound 11] | 58 to 121% |

The next lines start with the values.

| Emax at 10 µM | SMILES |
| --- | --- |
| 58 to 121% | O=C(Nc1ccc(C(F)(F)F)cc1)N[C@@H]1CN[C@H](c2nc(-c3ccccc3)no2)C1 [Compound 4] |
| 58 to 121% | Cc1ccc(NC(=O)N[C@@H]2CN[C@H](c3nc(-c4ccccc4)no3)C2)cc1 [Compound 6] |

From PMC6385358, “Discovery of ((1,2,4-oxadiazol-5-yl)pyrrolidin-3-yl)ureidyl derivatives as selective non-steroidal agonists of the G-protein coupled bile acid receptor-1” (Scientific Reports, 2019)
